Values quoted from earlier work as cited in patent US5567683A, “Substituted lactose and lactosamine derivatives as cell adhesion inhibitors” (Glycomed Incorporated, priority 1994, dated 1996).

Tested on: mammalian hepatocytes
Settings: effect of valency and spacing of lactose moieties; read-out: IC50 for inhibition of labeled ASOR binding to mammalian hepatocytes

For `OC[C@H]1O[C@@H](O[C@H]2[C@H](O)[C@@H](O)C(O)O[C@@H]2CO)[C@H](O)[C@@H](O)[C@H]1O` (stereo partly shown) [monovalent lactose, lactose], the IC50 is given as 500 µM.
